The text below walks through data of patent US11072581B2, “N-acyl-arylsulfonamide derivatives as aminoacyl-tRNA synthetase inhibitors” (Oxford Drug Design Limited, priority 2015, dated 2021).

Format in all cases: biochemical
For assay [1], the target named is T1, SauIRS (isoleucyl-tRNA synthetase from Staphylococcus aureus) (Staphylococcus aureus, UniProt P41972).
T1 construct: made in house; host or cells: Escherichia coli M15
T1 sequence (P41972 1-917): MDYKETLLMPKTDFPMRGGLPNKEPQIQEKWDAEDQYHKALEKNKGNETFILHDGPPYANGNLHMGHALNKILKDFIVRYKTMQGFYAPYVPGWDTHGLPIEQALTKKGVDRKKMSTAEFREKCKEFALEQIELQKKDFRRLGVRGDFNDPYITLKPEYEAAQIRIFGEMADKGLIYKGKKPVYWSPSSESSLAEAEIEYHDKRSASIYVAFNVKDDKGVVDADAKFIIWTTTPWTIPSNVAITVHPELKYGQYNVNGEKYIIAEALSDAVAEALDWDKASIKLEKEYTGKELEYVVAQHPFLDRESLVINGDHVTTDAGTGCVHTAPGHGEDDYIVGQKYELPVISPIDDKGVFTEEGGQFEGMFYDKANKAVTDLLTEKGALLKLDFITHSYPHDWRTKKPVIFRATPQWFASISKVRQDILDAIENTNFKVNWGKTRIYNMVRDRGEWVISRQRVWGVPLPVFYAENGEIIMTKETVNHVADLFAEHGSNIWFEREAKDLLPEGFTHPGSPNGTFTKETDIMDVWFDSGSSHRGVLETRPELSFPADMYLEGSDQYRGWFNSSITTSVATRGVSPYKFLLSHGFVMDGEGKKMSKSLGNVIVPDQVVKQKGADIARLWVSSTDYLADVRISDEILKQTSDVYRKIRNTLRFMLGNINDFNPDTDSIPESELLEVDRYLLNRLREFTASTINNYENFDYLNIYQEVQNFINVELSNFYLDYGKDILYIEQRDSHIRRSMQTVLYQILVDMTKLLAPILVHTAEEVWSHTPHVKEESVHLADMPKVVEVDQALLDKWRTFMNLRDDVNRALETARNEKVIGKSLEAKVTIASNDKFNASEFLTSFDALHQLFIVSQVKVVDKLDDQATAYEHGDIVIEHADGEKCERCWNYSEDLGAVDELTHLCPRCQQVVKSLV
Description: aaRS aminoacylation assay (ATP consumption), SauIRS. Conditions: i.a. = inactive at a concentration below 50 uM. The method, then:
(§1) The compounds have been tested for antibacterial activity in vitro as aminoacyl-tRNA synthetases (aaRS) inhibitors following the following process.
(§2) Leucyl-, valyl- and isoleucyl-tRNA synthetases (LRS, VRS and IRS, respectively) from Escherichia coli (Eco) and Staphylococcus aureus (Sau).
(§3) Escherichia coli M15 cells transformed with plasmid pQE-60, or pQE-70, containing the open-reading frame sequence of one targeted aaRS were induced with 1 mM IPTG (Isopropyl β-D-1-thiogalactopyranoside) for 3 h at 37° C. Bacterial cells were harvested and lysed with 20 mM NaH2PO4 (pH 8.0), 200 mM NaCl, 10 mM imidazole and protease inhibitor cocktail (Roche). Pathogenic aaRS was purified by nickel affinity standard chromatography. Protein concentration was determined by spectrophotometry.
(§4) tRNA^Leu, tRNA^Val and tRNA^Ile from E. coli and S. aureus were transcribed in vitro for 4 h at 37° C. using T7 RNA polymerase. Transcription reaction contained 40 mM Tris-HCl (pH 8.0), 22 mM MgCl2, 1 mM spermidine, 5 mM DTT, 0.01% Triton X-100, 4 mM GTP, 4 mM ATP, 4 mM UTP, 4 mM CTP, 16 mM GMP, […] T7 RNA polymerase and 150 μg BstNI digested plasmid. Once finished, the reaction was applied on a 6% polyacrylamide-8 M urea denaturing gel to purify the transcribed tRNA and discard any impurities. Purified tRNA was quantified with Nanodrop 2000 (Thermo Scientific).
(§5) The aminoacylation reaction catalyzed by aminoacyl-tRNA synthetases (aaRS) takes place in two steps. In the first step, aaRS activates its cognate amino acid with ATP; and in the second step the activated amino acid is loaded to its corresponding tRNA. This reaction can be summarized as follows: ARS+aa+ATP=ARS-aa-AMP+PPi ARS-aa-AMP+tRNA=aa-tRNA+AMP+ARS [2] (ARS, Aminoacyl-tRNA synthetase; aa, amino acid; ARS-aa-AMP, enzyme-bound to aminoacyl-adenylate; aa-tRNA, aminoacyl-tRNA).
(§6) The activity of the pathogenic aaRSs was monitored by measuring the ATP consumption rate, since this consumption is directly proportional to the activity of the aaRS. If the tested compound, at a single point concentration of 50 μM, is inhibiting the aminoacylation reaction, there is a decrease in the ATP consumption, compared to the control reaction without compound, allowing the calculation of an inhibition ratio.
(§7) When the inhibition ratio for a given compound was above 80%, IC50 determination was performed with the same enzymatic assay (using the commercial kit Kinase RR from BioThema AB, Sweden) in the presence of serial dilutions of inhibitor. Known inhibitors of LRS, VRS or IRS were used as a positive control of the assay. The IC50 was calculated based on nonlinear regression analysis.

Assay [2] concerns the target T2, SauLRS (leucyl-tRNA synthetase from Staphylococcus aureus) (Staphylococcus aureus, UniProt Q2FXH2).
T2 construct: made in house; host or cells: Escherichia coli M15
T2 sequence (Q2FXH2 1-805): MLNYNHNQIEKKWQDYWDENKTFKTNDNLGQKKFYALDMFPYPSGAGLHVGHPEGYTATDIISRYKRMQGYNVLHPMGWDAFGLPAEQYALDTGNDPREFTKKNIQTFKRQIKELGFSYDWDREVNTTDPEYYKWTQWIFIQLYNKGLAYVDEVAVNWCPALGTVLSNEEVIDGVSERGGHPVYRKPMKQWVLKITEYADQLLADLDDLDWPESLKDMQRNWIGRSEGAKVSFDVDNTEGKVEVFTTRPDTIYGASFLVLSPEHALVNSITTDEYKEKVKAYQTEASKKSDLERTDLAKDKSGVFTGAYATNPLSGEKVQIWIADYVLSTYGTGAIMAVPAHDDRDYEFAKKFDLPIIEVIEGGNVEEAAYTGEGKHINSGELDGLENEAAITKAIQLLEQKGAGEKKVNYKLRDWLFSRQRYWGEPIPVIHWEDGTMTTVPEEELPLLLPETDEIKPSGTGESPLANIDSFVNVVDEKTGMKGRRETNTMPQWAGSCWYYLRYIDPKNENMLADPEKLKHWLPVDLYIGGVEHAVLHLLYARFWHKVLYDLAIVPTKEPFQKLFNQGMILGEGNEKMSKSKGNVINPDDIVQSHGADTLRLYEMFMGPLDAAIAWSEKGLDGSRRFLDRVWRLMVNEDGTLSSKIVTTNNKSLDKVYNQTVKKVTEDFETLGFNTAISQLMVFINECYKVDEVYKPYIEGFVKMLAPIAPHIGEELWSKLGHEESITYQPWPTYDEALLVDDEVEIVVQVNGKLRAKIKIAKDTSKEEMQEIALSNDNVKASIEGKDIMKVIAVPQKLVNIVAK
Description: aaRS aminoacylation assay (ATP consumption), SauLRS. How it is done: as §1, §2, §3, §4, §5, §6, §7

In assay [3] the target is T3, EcoLRS (leucyl-tRNA synthetase from Escherichia coli) (Escherichia coli, UniProt P07813).
T3 construct: made in house; host or cells: Escherichia coli M15
T3 sequence (P07813 whole entry): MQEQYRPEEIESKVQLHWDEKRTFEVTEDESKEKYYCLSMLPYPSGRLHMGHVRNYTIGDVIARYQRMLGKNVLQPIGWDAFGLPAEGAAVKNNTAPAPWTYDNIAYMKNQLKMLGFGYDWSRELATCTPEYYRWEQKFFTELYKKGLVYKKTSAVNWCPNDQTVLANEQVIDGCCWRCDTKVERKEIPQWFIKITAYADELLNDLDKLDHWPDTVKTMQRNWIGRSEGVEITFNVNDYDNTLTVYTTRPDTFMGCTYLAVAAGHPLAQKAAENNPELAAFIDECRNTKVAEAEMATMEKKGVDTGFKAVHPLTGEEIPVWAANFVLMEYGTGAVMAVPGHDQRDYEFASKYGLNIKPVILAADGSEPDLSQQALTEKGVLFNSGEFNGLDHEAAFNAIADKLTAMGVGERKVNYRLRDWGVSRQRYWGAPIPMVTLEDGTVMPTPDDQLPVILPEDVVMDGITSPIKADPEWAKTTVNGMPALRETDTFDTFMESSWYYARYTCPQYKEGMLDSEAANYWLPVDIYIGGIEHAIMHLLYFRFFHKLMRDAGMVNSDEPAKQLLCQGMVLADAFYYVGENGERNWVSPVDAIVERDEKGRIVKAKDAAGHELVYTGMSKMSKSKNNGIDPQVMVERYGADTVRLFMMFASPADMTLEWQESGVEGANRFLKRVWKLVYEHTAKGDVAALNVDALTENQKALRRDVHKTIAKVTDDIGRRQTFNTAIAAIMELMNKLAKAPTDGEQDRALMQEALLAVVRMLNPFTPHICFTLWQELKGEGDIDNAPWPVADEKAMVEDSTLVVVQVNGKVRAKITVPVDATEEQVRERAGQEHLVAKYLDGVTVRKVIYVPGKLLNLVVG
Description: aaRS aminoacylation assay (ATP consumption), EcoLRS. How it is done: as §1, §2, §3, §4, §5, §6, §7

Where [4] appears, read: i.a. = inactive at a concentration below 50 uM, read-out: IC50 SauLRS.
Setting [5] is: i.a. = inactive at a concentration below 50 uM, read-out: IC50 EcoLRS.
Setting [6] is: i.a. = inactive at a concentration below 50 uM.

Where a name gives a salt, the structure may show the parent alone. Read-outs that look alike come from different tables or passages of the source.

In general, IC50 refers to the concentration that gives 50% inhibition. In the case of `CC(C)C[C@H](N)C(=O)NS(=O)(=O)c1ccc(Br)c2ccncc12` [Compound 5.22, trifluoroacetate], the “IC50 SauIRS” value in assay [1] is listed as “i.a”. In addition, the IC50 in assay [2] (setting [4]) stood at 11500 nM; in assay [3] it was 2400 nM.
In the case of `CC(C)C[C@H](N)C(=O)NS(=O)(=O)c1cccc(-c2ccncc2)c1` [Compound 5.42], the “IC50 SauIRS” value in assay [1] is recorded as “i.a”. For the same molecule, the IC50 turned out to be 810 nM in assay [2] and 13 nM in assay [3] (setting [5]).
Regarding `CC(C)C[C@H](N)C(=O)NS(=O)(=O)c1ccccc1-c1ccccc1` [Compound 5.3], in assay [1], the “IC50 SauIRS” value was “i.a”. The figures for the IC50 in assay [2] (setting [4]) and in assay [3] were 14800 nM and 159 nM, respectively.
`CC(C)C[C@H](N)C(=O)NS(=O)(=O)c1c(C(C)C)cc(C(C)C)cc1C(C)C` [Compound 5.12]: the “IC50 SauIRS” value in assay [1] is listed as “i.a”. For the same molecule, in assay [2] (setting [6]), the “IC50 SauLRS” value was “i.a”. In assay [3], this molecule gave an IC50 of 32700 nM.
Consider `Cc1cc(-c2cccc(S(=O)(=O)NC(=O)[C@@H](N)CC(C)C)c2)ncn1` [Compound 5.39], for which the “IC50 SauIRS” value in assay [1] is given as “i.a”. For the same molecule, the values for the 50% inhibitory concentration (IC50) in assay [2] (setting [4]) and in assay [3] were 2000 nM and 45 nM, respectively.
For `CC(C)C[C@H](N)C(=O)NS(=O)(=O)c1ccccc1` [Compound 5.1, (S)-2-amino-4-methyl-N-(phenylsulfonyl)pentanamide hydrochloride], the “IC50 SauIRS” value in assay [1] is “i.a”. The IC50 in assay [2] (setting [4]) stood at 5400 nM; in assay [3] (setting [5]), 35 nM.
`CC(C)C[C@H](N)C(=O)NS(=O)(=O)c1cccc2c1OCCC2` [Compound 5.25]: in assay [1], the “IC50 SauIRS” value is listed as “i.a”. The figures for the IC50 in assay [2] (setting [4]) and in assay [3] were 14100 nM and 149 nM, respectively.
In the case of `CC(C)C[C@H](N)C(=O)NS(=O)(=O)c1cccc(-c2cc(N(C)C)nc(N)n2)c1` [Compound 5.28], the “IC50 SauIRS” value in assay [1] was “i.a”. In addition, the concentration for half-maximal inhibition (IC50) was determined as 4800 nM in assay [2] (setting [4]) and 1600 nM in assay [3].
For `CC(C)C[C@H](N)C(=O)NS(=O)(=O)c1ccccc1Cl` [Compound 5.5], in that order: “i.a”, 13200 nM and 121 nM.
In the same order, the values of `CC(C)C[C@H](N)C(=O)NS(=O)(=O)c1cccc2cc(C(N)=O)ncc12` [Compound 5.24, 8-(N-(L-Leucyl)sulfamoyl)isoquinoline-3-carboxamide] are “i.a”, 8500 nM and 11 nM.
`CC(C)C[C@H](N)C(=O)NS(=O)(=O)c1cccc(-c2ccnc(N)c2)c1` [Compound 5.43]: the “IC50 SauIRS” value in assay [1] is “i.a”. Also, the concentration for half-maximal inhibition (IC50) in assay [2] (setting [4]) amounted to 330 nM; in assay [3], 2 nM.
For `CC(C)C[C@H](N)C(=O)NS(=O)(=O)c1ccc(Oc2ccccc2)cc1` [Compound 5.2], in that order: “i.a”, 16300 nM and 713 nM.
As to `N[C@@H](CC1CC1)C(=O)NS(=O)(=O)c1cccc(-c2ccccc2)c1` (racemic) [Compound 5.10], in assay [1], the “IC50 SauIRS” value is recorded as “i.a”. In assay [2] (setting [6]), the “IC50 SauLRS” value was “i.a”. In addition, half-maximal inhibition in assay [3] (IC50) required 47600 nM.
In the case of `CC(C)C[C@H](N)C(=O)NS(=O)(=O)c1cccc(-c2cccc(N)n2)c1` [Compound 5.44], in assay [1], the “IC50 SauIRS” value is “i.a”. In addition, the values for the IC50 in assay [2] (setting [4]) and in assay [3] were 1640 nM and 6 nM, respectively.
For `CC[C@H](C)[C@H](N)C(=O)NS(=O)(=O)c1ccc2ccccc2c1` [Compound 5.15], the “IC50 SauIRS” value in assay [1] is reported as “i.a”. The “IC50 SauLRS” value in assay [2] (setting [6]) is reported as “i.a”. Besides, the “IC50 EcoLRS” value in assay [3] (setting [6]) is listed as “i.a”.
`Cc1cc(-c2cccc(S(=O)(=O)NC(=O)[C@@H](N)CC3CCC3)c2)nc(N)n1` [Compound 5.31]: in assay [1], the “IC50 SauIRS” value was “i.a”. Further, the “IC50 SauLRS” value in assay [2] (setting [6]) was “i.a”. In assay [3], this molecule registered a half-maximal inhibitory concentration (IC50) of 6200 nM.
Take `CC(C)C[C@H](N)C(=O)NS(=O)(=O)c1cccc2ccncc12` [Compound 5.21]: in assay [1], the “IC50 SauIRS” value is reported as “i.a”. Besides, the results for the half-inhibitory concentration (IC50) in assay [2] (setting [4]) and in assay [3] were 3420 nM and 483 nM, respectively.
In the same order, the values of `CC(C)C[C@H](N)C(=O)NS(=O)(=O)c1cccc(-c2cc(-c3ccccc3)nc(N)n2)c1` [Compound 5.41] are “i.a”, 3000 nM and 220 nM.
As to `CC[C@H](C)[C@H](N)C(=O)NS(=O)(=O)c1cccc(-c2cc(C)nc(N)n2)c1` [Compound 5.40], the “IC50 SauIRS” value in assay [1] is recorded as “i.a”. Moreover, the “IC50 SauLRS” value in assay [2] (setting [6]) is “i.a”. For the same molecule, in assay [3], half-maximal inhibition (IC50) required 21800 nM.
Regarding `CC(C)C[C@H](N)C(=O)NS(=O)(=O)c1cccc(-c2ccnc(Cl)n2)c1` [Compound 5.49], in assay [1], the “IC50 SauIRS” value is “i.a”. The results for the IC50 in assay [2] (setting [4]) and in assay [3] were 6230 nM and 64 nM, respectively.
For `CC(C)C[C@H](N)C(=O)NS(=O)(=O)c1cccc2ccccc12` [Compound 5.13], in that order: “i.a”, 16100 nM and 59 nM.
In the same order, the values of `CC(C)C[C@H](N)C(=O)NS(=O)(=O)c1cccc(-c2cc(N)ncn2)c1` [Compound 5.46] are “i.a”, 1300 nM and 10 nM.
In the same order, the values of `COc1cc(-c2cccc(S(=O)(=O)NC(=O)[C@@H](N)CC(C)C)c2)nc(N)n1` [Compound 5.36] are “i.a”, 3000 nM and 12 nM.
